Assay results taken from patent publication US8119681B2, “2-[1-phenyl-5-hydroxy or methoxy-4alpha-methyl-hexahydrocyclopenta [ƒ]indazole-5-YL]ethyl phenyl derivatives as glucocorticoid receptor ligands” (Merck Sharp & Dohme Corp., priority 2006, dated 2012).

Each compound was assayed against T1, glucocorticoid receptor (GR) (Homo sapiens, UniProt P04150) (assay: Ligand binding assay (GR BIND), 3H-dexamethasone displacement, HeLa cell lysate). Conditions: Table 1; HeLa cell lysate, 3H-DEX.
T1 construct: endogenous in cells; host or cells: HeLa (ATCC) cell lysate supernatant
T1 sequence (P04150 1-777): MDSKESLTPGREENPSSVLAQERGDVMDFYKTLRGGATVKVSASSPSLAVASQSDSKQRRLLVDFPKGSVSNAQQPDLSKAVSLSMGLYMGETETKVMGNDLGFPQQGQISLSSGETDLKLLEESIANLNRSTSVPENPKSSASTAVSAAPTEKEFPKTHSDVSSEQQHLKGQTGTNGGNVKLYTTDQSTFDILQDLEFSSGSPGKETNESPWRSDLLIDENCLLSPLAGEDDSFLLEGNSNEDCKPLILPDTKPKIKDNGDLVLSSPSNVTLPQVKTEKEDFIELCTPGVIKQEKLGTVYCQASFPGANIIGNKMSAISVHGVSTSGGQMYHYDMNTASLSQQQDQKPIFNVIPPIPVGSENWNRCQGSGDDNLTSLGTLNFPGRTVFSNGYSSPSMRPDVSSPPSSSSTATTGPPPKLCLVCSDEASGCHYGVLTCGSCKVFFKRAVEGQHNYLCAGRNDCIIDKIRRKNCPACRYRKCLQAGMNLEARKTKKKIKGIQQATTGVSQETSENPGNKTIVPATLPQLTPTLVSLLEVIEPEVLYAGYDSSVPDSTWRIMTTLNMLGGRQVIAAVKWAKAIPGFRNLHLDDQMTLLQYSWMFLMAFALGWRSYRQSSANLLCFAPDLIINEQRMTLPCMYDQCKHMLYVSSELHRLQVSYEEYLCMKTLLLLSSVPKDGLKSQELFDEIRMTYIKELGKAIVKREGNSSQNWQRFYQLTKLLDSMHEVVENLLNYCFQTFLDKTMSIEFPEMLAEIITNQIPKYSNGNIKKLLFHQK
Experimental: Binding Buffer: TEGM (10 mM Tris-HCl, 1 mM EDTA, 10% glycerol, 1 mM beta-mercaptoethanol, 10 mM Sodium Molybdate, pH 7.2)
50% HAP Slurry: Calbiochem Hydroxylapatite, Fast Flow, in 10 mM Tris, pH 8.0 and 1 mM EDTA.
Wash Buffer: 40 mM Tris, pH7.5, 100 mM KCl, 1 mM EDTA and 1 mM EGTA.
Dexmethasone-methyl-^3H, (DEX*); (Amersham cat# TRK645)
Dexamethasone (DEX) (Sigma, cat# D1756):
Phenol red-free Trypsin-EDTA is diluted in the same PBS 1:10. The cell layers are rinsed with 1× Trypsin, extra Trypsin is poured out, and the cell layers are incubated at 37° C. for ˜2 min. The flask is tapped and checked for signs of cell detachment. Once the cells begin to slide off the flask, the complete media is added. The cells are counted at this point, then diluted to the appropriate concentration and split into flasks or dishes for further culturing (Usually 1:3 to 1:6 dilution).
Preparation of Hela Cell Lysate
The cell pellet is washed twice with TEGM (10 mM Tris-HCl, 1 mM EDTA, 10% glycerol, 1 mM beta-mercaptoethanol, 10 mM Sodium Molybdate, pH 7.2). After the final wash, the cells are resuspended in TEGM at a concentration of 10^7 cells/mL. The cell suspension is snap frozen in liquid nitrogen or ethanol/dry ice bath and transferred to −80° C. freezer on dry ice. Before setting up the binding assay, the frozen samples are left on ice-water to just thaw (˜1 hr). Then the samples are centrifuged at 12,500 g to 20,000 g for 30 min at 4° C. The supernatant is used to set-up assay right away. If using 50 μL of supernatant, the test compound can be prepared in 50 μL of the TEGM buffer.
Procedure for Multiple Compound Screening
1×TEGM buffer is prepared, and the isotope-containing assay mixture is prepared in the following order: EtOH (2% final concentration in reaction), 3H-DEX (Amersham Biosciences) and 1×TEGM. [e.g. For 100 samples, 200 μL (100×2) of EtOH+4.25 μL of 1:10 ^3H-Dex stock+2300 μL (100×23) 1×TEGM]. The compound is serially diluted, e.g., if starting final conc. is 1 μM, and the compound is in 25 μL of solution, for duplicate samples, 75 μL of 4×1 μM solution is made and 3 μL of 100 μM is added to 72 μL of buffer, and 1:5 serial dilution.
25 μL of ^3H-DEX (6 nM) trace and 25 μL compound solution are first mixed together, followed by addition of 50 μL receptor solution. The reaction is gently mixed, spun briefly at about 200 rpm and incubated at 4° C. overnight. 100 μL of 50% HAP slurry is prepared and added to the incubated reaction which is then vortexed and incubated on ice for 5 to 10 minutes. The reaction mixture is vortexed twice more to resuspend HAP while incubating reaction. The samples in 96-well format are then washed in wash buffer using The FilterMate™ Universal Harvester plate washer (Packard). The washing process transfers HAP pellet containing ligand-bound expressed receptor to Unifilter-96 GF/B filter plate (Packard). The HAP pellet on the filter plate is incubated with 50 μL of MICROSCINT (Packard) scintillant for 30 minutes before being counted on the TopCount microscintillation counter (Packard). IC50s are calculated using DEX as a reference.

Q: Which Ki does the source give for `C[C@]12Cc3cnn(-c4ccc(F)cc4)c3C=C1CC[C@@]2(O)CCc1ccccc1C(=O)NCC1CC1` [Example 37, N-(cyclopropylmethyl)-2-{2-[(4αS,5R)-1-(4-fluorophenyl)-5-hydroxy-4α-methyl-1,4,4α,5,6,7-hexahydrocyclopenta[r]indazol-5-yl]ethyl}benzamide] here?
A: The Ki was 0.44 nM.

Q: Which Ki does the source give for `CC(CNC(=O)c1c(F)cccc1CC[C@]1(O)CCC2=Cc3c(cnn3-c3ccc(F)cc3)C[C@@]21C)C(F)(F)F` (stereo partly drawn) [Example 38, 2-fluoro-6-{2-[(4αS,5R)-1-(4-fluorophenyl)-5-hydroxy-4α-methyl-1,4,4α,5,6,7-hexahydrocyclopenta[f]indazol-5-yl]ethyl}-N-(3,3,3-trifluoro-2-methylpropyl)benzamide] here?
A: The Ki was 0.43 nM.

Q: How did the Ki turn out when `C[C@]12Cc3cnn(-c4ccc(F)cc4)c3C=C1CC[C@@]2(O)CCc1ccccc1C(=O)N1CCC1` [Example 40, (4αS,5R)-5-{2-[2-(azetidin-1-ylcarbonyl)phenyl]ethyl}-1-(4-fluorophenyl)-4α-methyl-1,4,4α,5,6,7-hexahydrocyclopenta[f]indazol-5-ol] was run?
A: Its Ki is 6.14 nM.

Q: `COC(=O)C(C)(C)NC(=O)c1c(F)cccc1CC[C@]1(O)CCC2=Cc3c(cnn3-c3ccc(F)cc3)C[C@@]21C` [Example 41, methyl N-(2-fluoro-6-{2-[(4αS,5R)-1-(4-fluorophenyl)-5-hydroxy-4α-methyl-1,4,4α,5,6,7-hexahydrocyclopenta[f]indazol-5-yl]ethyl}benzoyl)-2-methylalaninate] was tested. Which Ki did it give?
A: Its Ki is 0.83 nM.

Q: Which Ki does the source give for `C[C@]12Cc3cnn(-c4ccccc4)c3C=C1CC[C@@]2(O)CCc1ccccc1C(=O)NC1CC1` [Example 42, N-cyclopropyl-2-{2-[(4αS,5R)-5-hydroxy-4α-methyl-1-phenyl-1,4,4α,5,6,7-hexahydrocyclopenta[f]indazol-5-yl]ethyl}benzamide] here?
A: The Ki was 2.79 nM.

Q: With `C[C@]12Cc3cnn(-c4ccccc4)c3C=C1CC[C@@]2(O)CCc1ccccc1C(N)=O` [Example 43, 2-{2-[(4αS,5R)-5-hydroxy-4α-methyl-1-phenyl-1,4,4α,5,6,7-hexahydrocyclopenta[f]indazol-5-yl]ethyl}benzamide] as the compound, how does the Ki read?
A: The Ki was 5.16 nM.

Q: `C=C(C)CNC(=O)c1c(F)cccc1CC[C@]1(O)CCC2=Cc3c(cnn3-c3ccc(F)cc3)C[C@@]21C` [Example 44, 2-fluoro-6-{2-[(4αS,5R)-1-(4-fluorophenyl)-5-hydroxy-4α-methyl-1,4,4α,5,6,7-hexahydrocyclopenta[f]indazol-5-yl]ethyl}-N-(2-methylprop-2-en-1-yl)benzamide] was tested. Which Ki did it give?
A: Its Ki is 0.6 nM.

Q: For `C[C@H](CNC(=O)c1ccccc1CC[C@]1(O)CCC2=Cc3c(cnn3-c3ccc(F)cc3)C[C@@]21C)C(F)(F)F` [Example 45, 2-{2-[(4αS,5R)-1-(4-fluorophenyl)-5-hydroxy-4α-methyl-1,4,4α,5,6,7-hexahydrocyclopenta[f]indazol-5-yl]ethyl}-N-[(2R)-3,3,3-trifluoro-2-methylpropyl]benzamide], which Ki is on record?
A: The Ki was 1.02 nM.

Q: How did the Ki turn out when `C[C@]12Cc3cnn(-c4ccc(F)cc4)c3C=C1CC[C@@]2(O)CCc1ccccc1C(=O)N1CCCCC1` [Example 46, (4αS,5R)-1-(4-fluorophenyl)-4α-methyl-5-{2-[2-(piperidin-1-ylcarbonyl)phenyl]ethyl}-1,4,4α,5,6,7-hexahydrocyclopenta[f]indazol-5-ol] was run?
A: The Ki was 3.02 nM.

Q: How did the Ki turn out when `C[C@]12Cc3cnn(-c4ccc(F)cc4)c3C=C1CC[C@@]2(O)CCc1ccccc1C(=O)N1CCCC1` [Example 47, (4αS,5R)-1-(4-fluorophenyl)-4α-methyl-5-{2-[2-(pyrrolidin-1-ylcarbonyl)phenyl]ethyl}-1,4,4α,5,6,7-hexahydrocyclopenta[f]indazol-5-ol] was run?
A: Its Ki is 11.5 nM.

Q: How did the Ki turn out when `CC(C)[C@@H](C)NC(=O)c1c(F)cccc1CC[C@]1(O)CCC2=Cc3c(cnn3-c3ccc(F)cc3)C[C@@]21C` [Example 48, N-[(1R)-1,2-dimethylpropyl]-2-fluoro-6-{2-[(4αS,5R)-1-(4-fluorophenyl)-5-hydroxy-4α-methyl-1,4,4α,5,6,7-hexahydrocyclopenta[f]indazol-5-yl]ethyl}benzamide] was run?
A: The Ki was 1.2 nM.

Q: `CCCNC(=O)c1c(F)cccc1CC[C@]1(O)CCC2=Cc3c(cnn3-c3ccc(F)cc3)C[C@@]21C` [Example 49, 2-fluoro-6-{2-[(4αS,5R)-1-(4-fluorophenyl)-5-hydroxy-4α-methyl-1,4,4α,5,6,7-hexahydrocyclopenta[f]indazol-5-yl]ethyl}-N-propylbenzamide] was tested. Which Ki did it give?
A: The Ki was 0.81 nM.

Q: For `CCNC(=O)c1ccccc1CC[C@]1(O)CCC2=Cc3c(cnn3-c3ccc(F)c(F)c3)C[C@@]21C` [Example 51, 2-{2-[(4αS,5R)-1-(3,4-difluorophenyl)-5-hydroxy-4α-methyl-1,4,4α,5,6,7-hexahydrocyclopenta[f]indazol-5-yl]ethyl}-N-ethylbenzamide], which Ki is on record?
A: The Ki was 7.05 nM.

Q: Which Ki does the source give for `COC(=O)C(C)(C)NC(=O)c1ccccc1CC[C@]1(O)CCC2=Cc3c(cnn3-c3ccc(F)cc3)C[C@@]21C` [Example 52, methyl N-(2-{2-[(4αS,5R)-1-(4-fluorophenyl)-5-hydroxy-4α-methyl-1,4,4α,5,6,7-hexahydrocyclopenta[f]indazol-5-yl]ethyl}benzoyl)-2-methylalaninate] here?
A: The Ki was 0.8 nM.

Q: For `CC(C)(C)CNC(=O)c1c(F)cccc1CC[C@]1(O)CCC2=Cc3c(cnn3-c3ccc(F)cc3)C[C@@]21C` [Example 55, N-(2,2-dimethylpropyl)-2-fluoro-6-{2-[(4αS,5R)-1-(4-fluorophenyl)-5-hydroxy-4α-methyl-1,4,4α,5,6,7-hexahydrocyclopenta[f]indazol-5-yl]ethyl}benzamide], which Ki is on record?
A: The Ki was 0.92 nM.

Q: With `C=CCNC(=O)c1c(F)cccc1CC[C@]1(O)CCC2=Cc3c(cnn3-c3ccc(F)cc3)C[C@@]21C` [Example 57, N-allyl-2-fluoro-6-{2-[(4αS,5R)-1-(4-fluorophenyl)-5-hydroxy-4α-methyl-1,4,4α,5,6,7-hexahydrocyclopenta[f]indazol-5-yl]ethyl}benzamide] as the compound, how does the Ki read?
A: Its Ki is 0.61 nM.

Same assay, conditions: Table 2; prior-art comparison compounds

Q: With `C[C@]12Cc3cnn(-c4ccc(F)cc4)c3C=C1CC[C@@]2(O)CCc1ccccc1Cl` [Example 40 WO 2004/075840 A2, reference compound] as the compound, how does the Ki read?
A: Its Ki is 20.7 nM.

Q: How did the Ki turn out when `C[C@]12Cc3cnn(-c4ccc(F)cc4)c3C=C1CCC[C@@]2(O)CCc1ccccc1Cl` [Example 41 WO 2004/075840 A2, reference compound] was run?
A: The Ki was 0.32 nM.

Q: For `C[C@]12Cc3cnn(-c4ccc(F)cc4)c3C=C1CC[C@@]2(O)CCc1ccc(F)cc1` [Example 46 WO 2004/075840 A2, reference compound], which Ki is on record?
A: Its Ki is 1 nM.

Q: How did the Ki turn out when `COc1ccccc1CC[C@]1(O)CCC2=Cc3c(cnn3-c3ccc(F)cc3)C[C@@]21C` [Example 58 WO 2004/075840 A2, reference compound] was run?
A: The Ki was 0.28 nM.
